For one series, the system named is HBV. Briefly: Determination of HBV DNA from the supernatants of HepAD38 cells (anti-HBV activity). The format is cell-based, hepatitis B virus. The settings on record: HBV DNA in HepAD38 supernatant at day 6; read-out: Cell Activity (EC50). In short, it runs like this: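 EC50 values were obtained by non-linear regression of HBV DNA copy numbers measured by qPCR against pCH-9/3091 plasmid standards. The DNA came from filtered supernatants collected on day 6. Before that, tetracycline-withdrawn HepAD38 cells had been exposed to serial half-log compound dilutions, with tetracycline-treated cells as the non-producing control.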

The subject of another series is HepAD38 cells. Briefly: Cell viability assay (AlamarBlue) in HepAD38 cells. The settings on record: HepAD38 cells in the presence of 0.3 μg/ml tetracycline, six days incubation.
In the next series the target is HBV core protein (UniProt P03146). The format is biochemical. The settings on record: BODIPY-FL labelled core protein, assembly started with NaCl, read after 6 min; read-out: Assembly Activity (IC50). In short, it runs like this:
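Compounds tested at 8 concentrations in 0.5-log steps from 100, 31.6 or 10 μM against 1.0–2.0 μM BODIPY-FL-labelled Cys150 core dimers (residues 1–149), 50 mM HEPES pH 7.5. NaCl ([…] final) triggered assembly; quenching read at 6 min, 477/525 nm, with 2.5 M and 0 M NaCl as controls; EC50 by nonlinear fit.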

Where only a bound is given, the exact number is not on record here.

Chain of HBV core protein (P03146 whole entry, looked up, the tested form may be a part): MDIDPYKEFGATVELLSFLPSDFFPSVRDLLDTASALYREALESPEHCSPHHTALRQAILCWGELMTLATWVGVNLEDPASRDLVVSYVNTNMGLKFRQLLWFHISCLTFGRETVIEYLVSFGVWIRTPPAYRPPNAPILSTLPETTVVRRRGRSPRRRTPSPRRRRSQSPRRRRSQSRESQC

For `O=C(Nc1nc2c(s1)CN(C(=O)c1cc3ccccc3[nH]1)CC2)C1[C@H]2CNC[C@@H]12` (stereo partly drawn) [Example 359, (1R,5S,6R)—N-[5-(1H-indole-2-carbonyl)-4H,5H,6H,7H-[1,3]thiazolo[5,4-c]pyridin-2-yl]-3-azabicyclo[3.1.0]hexane-6-carboxamide], the EC50 in the series on HBV is below 1 µM. Besides, the CC50 in the series on HepAD38 cells was above 10 µM. In addition, the half-maximal inhibitory concentration (IC50) on HBV core protein is below 5 µM.

(Values after patent publication US11267825B2 (AICURIS GMBH & CO. KG, priority 2017, dated 2022).)
